How the values were obtained:
[1] = test system: caspase 3, 7, 9 and PARP; assay: Western analysis of caspases and PARP in U251 cells; assay type: cell-based, human; settings: THC 1.7 μM, CBD 0.4 μM, three days
Description: Caspases play a primary role in the regulation of programmed cell death.

[2] = test system: Id-1 gene; assay: PCR of Id-1 mRNA expression in MDA-MB231 cells; assay type: cell-based, human
Experimental: Polymerase Chain Reaction: Total cellular RNA was isolated from breast cancer cells treated with vehicle control or with CBD. Transcripts for Id-1 and for β-actin were reverse transcribed using SuperscriptII Reverse TranscriptaseII (Gibco-BRL), and polymerase chain reaction performed. The 5′ and 3′ PCR primers were […] (SEQ ID NO:1) and […] (SEQ ID NO:2) for Id-1; and […] (SEQ ID NO:3) and […] (SEQ ID NO:4) for β-actin. PCR was performed in buffer containing 1 μM of each of the 5′ and 3′ PCR primer and 0.5 U of Taq polymerase using 25 cycles for amplification of Id-1 and β-actin cDNAs. The cycle conditions were 45 sec denaturation at 94° C., 45 sec annealing at 55° C., and 1 min extension at 72° C.
Gene Expression Assays looking at Id-1 gene epression with CBD in MDA-MB231 cells. […] To determine if this effect was due to the inhibition of transcription, a construct was used that contained the Id-1 promoter fused to a luciferase reporter in a PGL-3 basic vector. This construct was transiently transfected into MDA-MB231 cells. Twenty-four hours after transfection, MDA-MB231-Id-1-luc cells were treated with CBD for 2 or 3 days and luciferase activity was measured (FIG. 3, panel B and panel C). […] These findings correlated to the data obtained when the expression of the Id-1 protein was assessed by Western analysis.

[3] = test system: pERK, JNK, p38 MAPK; assay: Western analysis of MAPK activity in U251 cells
[4] = test system: U251 cells; assay: Organotypic brain slice invasion assay; assay type: cell-based, human; settings: 1 μM
Experimental: Effects of CBD on GBM cell invasion in In Vivo Studies. To determine whether CBD could inhibit GBM cell invasion through intact brain tissue, an organotypic brain slice assay was utilized. GFP-labeled U251 cells were treated for two days in culture with vehicle or CBD. On the third day, the cells were harvested and transferred to the top of a 0.5 mm coronal rat brain slice obtain from a postnatal day 3 rat pup. A porous cell culture insert containing the slice was suspended for three days in a well containing conditioned media with either vehicle or 1 μM CBD. […] GBM tumors were generated in nu/nu mice by intracranial injection of U251 GBM cells. […] CBD produced a robust reduction of GBM progression, decreasing the tumor area by 95% (FIG. 14, panels B and C). […] This occurred concomitantly with a decrease in tumor cell proliferation (the number of Ki67-positive nuclei was decreased by 87%±9 (p<0.0001, Student's t-test)) (FIG. 14, panel D).

Q: Which “caspase 3, 7, 9 and PARP” value [1] does the source give for C=C(C)[C@@H]1CCC(C)=C[C@H]1c1c(O)cc(CCCCC)cc1O [CBD, cannabidiol] here?
A: The value was “no changes in caspase activity were observed”.

Q: And the “Id-1 mRNA expression” value [2]?
A: The value was “significantly reduced”.

Q: What about the “p-ERK, higher concentrations alone” value ([3]; 2.5 μM Δ^9-THC, 2.0 μM CBD, three days) of the same compound?
A: The value was “small inhibition of p-ERK”.

Q: And the pERK ([3]; THC 1.7 μM, CBD 0.4 μM, two days)?
A: The pERK was “no changes in pERK were observed”.

Q: What about the “invasion of U251 cells through the organotypic brain slice” value [4] of the same compound?
A: Its value is “highly effective at inhibiting invasion”.

From patent US9809521B2, “Cannabidinoid derivatives” (priority 2011, dated 2017)
